# Experimental data as given in US20130149249A1, “IMAGING TUBERCULOSIS WITH PYRAZINAMIDE CONTRAST AGENTS” (GE HEALTHCARE LIMITED, priority 2010, published 2013).
# Experiments:
# [1] = test system: Mycobacterium tuberculosis H37Rv (ATCC 27294); assay: Microplate Alamar Blue Assay (MABA); format: cell-based; details: M. tuberculosis H37Rv, BACTEC 12B medium, pH 6.8, concentration effecting 90% reduction in fluorescence relative to controls
# Procedure: A series of in vitro tests were carried out to determine the properties of known compounds alongside a rhenium derivative of an in vivo imaging agent of the present invention. These tests were the Microplate Alamar Blue Assay (MABA) (Franzblau S et al., J Clin Microbiol 1998, 36, 362-366), the Low Oxygen Recovery Assay (LORA) (Cho et al., Antimicro Agents Chemother 2007, 51, 1380-1385), and the VERO cell cytotoxicity assay to determine IC 50 (Cory A H et al., Cancer Commun 1991, 3, 207-12).
# The initial screen was conducted against Mycobacterium tuberculosis H37Rv (ATCC 27294) in BACTEC 12B medium using the Microplate Alamar Blue Assay (MABA). Compounds were tested in ten 2-fold dilutions, typically from 100 μg/mL to 0.19 μg/mL at pH 6.8. The MIC90 is defined as the concentration effecting a reduction in fluorescence of 90% relative to controls. This value was determined from the dose-response curve using a curve-fitting program.
# [2] = test system: VERO cell; assay: VERO cell cytotoxicity assay; format: cell-based; details: Chlorocebus sabaeus, 72 hours exposure, Cell Titer Glo viability
Structure (SMILES),MIC [1],IC50 [2]
COc1ccc(CSCCNCCN(CCCN)CCSCc2ccc(OC)cc2)cc1 [Chelate alone],1.49 µg/mL,> 50 µg/mL
COc1ccc(CSCCNCCN(CCCNC(=O)c2cnccn2)CCSCc2ccc(OC)cc2)cc1 [PZA + Chelate],10.4 µg/mL,36.8 µg/mL
"NC(=O)c1cnccn1 [Standard drug, Pyrazinamide]",> 100 µg/mL,–
